According to the NIST ThermoML archive (doi:10.1021/je900437b):
Numbers after ± are expanded uncertainties.

Assay: xn = mol fraction of the nth substance listed
Settings: 101 kPa, Liquid; for speed of sound: Sing-around technique in a fixed-path interferometer; for mass density: Vibrating tube method

CC(C)(N)CO [2-amino-2-methylpropan-1-ol] + NCCO
Settings	mass density [kg/m3]	speed of sound [m/s]
293.15 K, x2 = 0	936.751 ± 4.8	1501.4 ± 5
293.15 K, x2 = 0.141	944.932 ± 3.8	1525.9 ± 4.5
293.15 K, x2 = 0.2691	953.001 ± 3	1550.2 ± 4
293.15 K, x2 = 0.3862	961.121 ± 2.3	1574 ± 3.5
293.15 K, x2 = 0.4939	969.165 ± 1.8	1597.6 ± 3.1
293.15 K, x2 = 0.5933	977.051 ± 1.4	1621.2 ± 2.7
293.15 K, x2 = 0.6869	984.969 ± 1	1645.1 ± 2.4
293.15 K, x2 = 0.7724	992.742 ± 0.76	1668.2 ± 2.1
293.15 K, x2 = 0.8532	1000.62 ± 0.54	1691 ± 1.8
293.15 K, x2 = 0.9268	1008.22 ± 0.37	1712.6 ± 1.5
298.15 K, x2 = 0	932.596 ± 4.7	1483.4 ± 5
298.15 K, x2 = 0.141	940.731 ± 3.7	1508.3 ± 4.5
298.15 K, x2 = 0.2691	948.799 ± 3	1533 ± 4
298.15 K, x2 = 0.3862	956.918 ± 2.3	1557.1 ± 3.5
298.15 K, x2 = 0.4939	964.959 ± 1.8	1580.9 ± 3.1
298.15 K, x2 = 0.5933	972.875 ± 1.4	1604.7 ± 2.7
298.15 K, x2 = 0.6869	980.811 ± 1	1628.8 ± 2.4
298.15 K, x2 = 0.7724	988.58 ± 0.75	1652 ± 2.1
298.15 K, x2 = 0.8532	996.465 ± 0.53	1674.8 ± 1.8
298.15 K, x2 = 0.9268	1004.08 ± 0.37	1696.5 ± 1.5
303.15 K, x2 = 0	928.395 ± 4.7	1461.2 ± 5
303.15 K, x2 = 0.141	936.493 ± 3.7	1486.9 ± 4.5
303.15 K, x2 = 0.2691	944.603 ± 2.9	1512.3 ± 4
303.15 K, x2 = 0.3862	952.718 ± 2.3	1537.1 ± 3.5
303.15 K, x2 = 0.4939	960.768 ± 1.8	1561.6 ± 3.1
303.15 K, x2 = 0.5933	968.682 ± 1.4	1585.9 ± 2.7
303.15 K, x2 = 0.6869	976.624 ± 1	1610.5 ± 2.4
303.15 K, x2 = 0.7724	984.413 ± 0.75	1634.3 ± 2.1
303.15 K, x2 = 0.8532	992.305 ± 0.53	1657.7 ± 1.8
303.15 K, x2 = 0.9268	999.98 ± 0.36	1679.9 ± 1.5
308.15 K, x2 = 0	924.174 ± 4.6	1442.4 ± 5
308.15 K, x2 = 0.141	932.236 ± 3.7	1468.5 ± 4.5
308.15 K, x2 = 0.2691	940.355 ± 2.9	1494.4 ± 4
308.15 K, x2 = 0.3862	948.482 ± 2.3	1519.5 ± 3.5
308.15 K, x2 = 0.4939	956.545 ± 1.8	1544.3 ± 3.1
308.15 K, x2 = 0.5933	964.465 ± 1.4	1569 ± 2.7
308.15 K, x2 = 0.6869	972.442 ± 1	1593.8 ± 2.4
308.15 K, x2 = 0.7724	980.259 ± 0.74	1617.7 ± 2.1
308.15 K, x2 = 0.8532	988.206 ± 0.53	1641.2 ± 1.8
308.15 K, x2 = 0.9268	995.885 ± 0.36	1663.6 ± 1.5
313.15 K, x2 = 0	919.945 ± 4.6	1423.8 ± 5
313.15 K, x2 = 0.141	927.969 ± 3.7	1450.4 ± 4.5
313.15 K, x2 = 0.2691	936.091 ± 2.9	1476.5 ± 4
313.15 K, x2 = 0.3862	944.248 ± 2.3	1501.9 ± 3.5
313.15 K, x2 = 0.4939	952.319 ± 1.8	1527 ± 3.1
313.15 K, x2 = 0.5933	960.252 ± 1.3	1551.9 ± 2.7
313.15 K, x2 = 0.6869	968.25 ± 1	1576.9 ± 2.4
313.15 K, x2 = 0.7724	976.093 ± 0.74	1601 ± 2.1
313.15 K, x2 = 0.8532	984.066 ± 0.53	1624.7 ± 1.8
313.15 K, x2 = 0.9268	991.791 ± 0.36	1647.3 ± 1.5
318.15 K, x2 = 0	915.702 ± 4.6	1405.3 ± 5
318.15 K, x2 = 0.141	923.687 ± 3.6	1432.2 ± 4.5
318.15 K, x2 = 0.2691	931.816 ± 2.9	1458.6 ± 4
318.15 K, x2 = 0.3862	940.009 ± 2.2	1484.3 ± 3.5
318.15 K, x2 = 0.4939	948.077 ± 1.7	1509.7 ± 3.1
318.15 K, x2 = 0.5933	956.017 ± 1.3	1534.8 ± 2.7
318.15 K, x2 = 0.6869	964.037 ± 1	1559.9 ± 2.4
318.15 K, x2 = 0.7724	971.917 ± 0.74	1584.1 ± 2.1
318.15 K, x2 = 0.8532	979.896 ± 0.52	1608 ± 1.8
318.15 K, x2 = 0.9268	987.66 ± 0.36	1630.8 ± 1.5
323.15 K, x2 = 0	911.431 ± 4.5	1386.9 ± 5
323.15 K, x2 = 0.141	919.381 ± 3.6	1414.2 ± 4.5
323.15 K, x2 = 0.2691	927.518 ± 2.8	1440.8 ± 4
323.15 K, x2 = 0.3862	935.735 ± 2.2	1466.7 ± 3.5
323.15 K, x2 = 0.4939	943.814 ± 1.7	1492.3 ± 3.1
323.15 K, x2 = 0.5933	951.753 ± 1.3	1517.7 ± 2.7
323.15 K, x2 = 0.6869	959.804 ± 0.99	1542.9 ± 2.4
323.15 K, x2 = 0.7724	967.721 ± 0.73	1567.2 ± 2.1
323.15 K, x2 = 0.8532	975.738 ± 0.52	1591.3 ± 1.8
323.15 K, x2 = 0.9268	983.527 ± 0.36	1614.4 ± 1.5
